Where a SMILES comes first, the peptide text is derived from it. The star is where a group is joined. Succinyl(4-O-cholesteryl) = CC(C)CCC[C@@H](C)[C@H]1CC[C@H]2[C@@H]3CC=C4C[C@@H](OC(=O)CCC(=O)*)CC[C@]4(C)[C@H]3CC[C@]12C
Key:
[1] = test system: C26 subcutaneously implanted tumor; test: Subcutaneously implanted tumor model of C26 mouse colon cancer; type: in vivo
Protocol: In order to further characterize the application potential of DP7-C micelles in tumor therapy, we established a subcutaneously implanted tumor model of C26 mouse colon cancer and used DP7-C to transmit anti-VEGF siRNA therapeutic genes for therapeutic research. • (1) On day 0, female BALB/c mice aged 6-8 weeks are subcutaneously inoculated with 0.1 mL of cell suspension (containing about 1.5×10^6 C26 cells). • (2) On day 8, when the tumor is palpable, mice are randomly divided into 4 groups, 8 mice for each group, and are labeled. • (3) Four groups of mice are intratumorally injected with 10 doses of normal saline (blank control group), blank DP7-C micelle (25 μg), DP7-C/no-sense control siRNA complex (25 μg/5 μg) or DP7-C/VEGF siRNA complex (25 μg/5 μg) respectively. • (4) On day 20, when the mice in the control group are already very weak, all the mice are killed by cervical dislocation; the tumor tissues in the abdominal cavity as well as the heart, liver, spleen, lung and kidney tissues are immediately collected, weighed and analyzed. The ascites of each group of mice is also collected and measured, and CD31 immunohistochemical staining is performed on tumor tissues of each experimental group. The collected heart, liver, spleen, lung and kidney tissues are analyzed by HE staining.

B16 mouse melanoma cells = test: FAM-siRNA transfection efficiency in vitro, B16; type: cell-based; conditions: FAM-siRNA 1 μg, flow cytometry
Protocol: In 24 h before transfection, the C26 mouse colon cancer cells or B16 mouse melanoma cells are laid in a 6-well plate with a density of 5×10^4 cells per well, and 2 ml of DMEM medium containing 20% FBS is added to each well. FAM-modified no-sense siRNA (FAM-siRNA) is used as a reporter gene to detect transfection efficiency, while PEI25K and Lipofectamin2000 are used as positive controls. During transfection, the medium is firstly replaced with 1 ml of serum-free DMEM medium. Subsequently, the gene transfection complexes mixed at different proportions are added to each well, and each complex contains 1 μg of FAM-siRNA. Among them, the ratio of siRNA/DP7-C, siRNA/PEI25K and siRNA/Lipofectamin2000 is 1:5, 1:2 and 1:2 respectively. After the medium is incubated at 37° C. for 4 h, it is replaced by DMEM medium supplemented with 20% FBS and sequentially incubated. After 24 h, the transfection is observed under a microscope and photographed. All cells in the wells including floating and adherent cells are collected, washed twice with precooled PBS, and the total fluorescence intensity of each group is counted by flow cytometer (EPICS Elite ESP, USA).

multiple strains = test: Antibacterial activity in vitro (MIC); type: cell-based
[2] = test system: B16 metastatic melanoma in the lung; test: B16 mouse model of metastatic melanoma in the lung; type: in vivo
Protocol: In order to further characterize the application potential of DP7-C micelles in tumor therapy, we established a B16 mouse model of metastatic melanoma in the lung and used DP7-C to transmit anti-VEGF siRNA therapeutic genes for therapeutic research. • (1) On day 0, female C57 mice aged 6-8 weeks are […] inoculated with 0.1 mL of cell suspension (containing about 2.5×10^5 B16 cells). • (2) On day 3, mice are randomly divided into 4 groups, 8 mice for each group, and are labeled. • (3) Mice are injected with 7 doses of normal saline (blank control group), blank DP7-C micelle (60 μg), DP7-C/no-sense control siRNA complex (60 μg/12 μg) or DP7-C/VEGF siRNA complex (60 μg/12 μg) respectively through tail veins. • (4) On day 20, when the mice in the control group are already very weak, all the mice are killed by cervical dislocation; the tumor tissues in the lung as well as the heart, liver, spleen, lung and kidney tissues are immediately collected, weighed and analyzed. The collected heart, liver, spleen, lung and kidney tissues are analyzed by HE staining.

[3] = Physical characteristics of DP7-C micelles (Malvin particle size meter, appearance); type: physicochemical
Description: We detected some physical characteristics such as particle size and Zeta potential of DP7-C micelles by the atomic force microscope and Malvin particle size meter. • 1 Atomic force microscope photography: prepare different concentrations of DP7-C solution, add to the mica sheets dropwise and dry naturally. Put the mica sheets coated with DP7-C on the atomic force microscope for photography. • 2 Detection of particle size and Zeta potential: dissolve DP7-C in Milliq water, determine particle size and Zeta potential by Malvin particle size meter, and detect each sample for four times to obtain their average value. • 3 Appearance and solution state of DP7-C: observe the appearance of MilliQ water, DP7-C water solution and lyophilized powder, and take photos with a camera; wherein, a is MilliQ water, b is DP7-C dissolved in aqueous solution, C is the state of DP7-C lyophilized powder after redissolving, and d is the shape and color of DP7-C lyophilized powder.

[4] = test system: 293T human embryonic kidney cell line; type: cell-based; conditions: 293T cells, 24 h, CCK-8
Protocol: Cytotoxicity of cations is one of the important factors that restrict the application of siRNA transfection. The toxicity of DP7-C micelles to 293T human embryonic kidney cell line, a normal cell, is detected through cell survival experiments. 293T cells are laid in a 96-well plate at a density of 3×10^3 cells per well, and 100 μL of DMEM/20% FBS medium is added to each well and incubated for 24 h. In the experiment, three groups are set up, i.e. DP7-C, PEI25K and Lipofectamin2000; and each group had 10 concentration gradients of 0, 12.5, 18.75, 25, 37, 50, 75, 100, 150 and 200 μg/mL respectively. The survival of the cells was detected by the CCK-8 method. After 24 h of dosing, 10 μL of CCK-8 solution is added to each well and incubated at 37° C. for 2 h. The absorption value of each well is detected at the wavelength of 630 nm and 450 nm by a microplate reader. The standard curve is drawn and IC50 is calculated, and the average value of 6 groups of parallel experiments is taken as the final result.

[5] = tail vein injection, 7 doses, day 20
[6] = Milliq water, Malvin particle size meter

CC[C@H](C)[C@H](NC(=O)[C@H](CCCNC(=N)N)NC(=O)[C@H](Cc1c[nH]c2ccccc12)NC(=O)[C@H](CCC(N)=O)NC(=O)[C@@H](NC(=O)CCC(=O)O[C@H]1CC[C@@]2(C)C(=CC[C@H]3[C@@H]4CC[C@H]([C@H](C)CCCC(C)C)[C@@]4(C)CC[C@@H]32)C1)C(C)C)C(=O)N[C@@H](CCCNC(=N)N)C(=O)N[C@H](C(=O)N[C@@H](C)C(=O)N[C@H](C(=O)N[C@H](C(=O)N[C@@H](CCCNC(=N)N)C(=O)N[C@@H](CCCCN)C(N)=O)[C@@H](C)CC)C(C)C)C(C)C [DP7-C, Chol-suc-VQWRIRVAVIRK-NH2] ({Succinyl(4-O-cholesteryl)}-VQWRIRVAVIRK-NH2)
HE staining of major organ tissues ([1]; heart, liver, spleen, lung, kidney): no significant pathological changes
average tumor weight (unit mm^3) ([1]; intratumoral injection, 10 doses): 357.64±30.56 mm^3
transfection efficiency (B16 mouse melanoma cells): 53.3 ± 4.0%
MIC (multiple strains): > 1024 µg/mL
HE staining of major organ tissues ([2]; heart, liver, spleen, kidney): no significant pathological changes
average number of tumor nodes [2, 5]: 132±22
average weight of lung tissue [2, 5]: 0.41 ± 0.1 g
Zeta potential [3, 6]: about 28.8±0.27 mV
particle size [3, 6]: about 24.3±1.5 nm
solubility in water ([3]; lyophilized powder): soluble in water
IC50 [4]: exceeding 200 μg/mL

Reference: patent US20250249110A1, “ANTIMICROBIAL PEPTIDE DERIVATIVE AND USE THEREOF” (SICHUAN UNIVERSITY, priority 2016, published 2025)
